{"source": "patent US8748569B2", "about": "“Peptide amphiphiles and methods to electrostatically control bioactivity of the ikvav peptide epitope” (Northwestern University, priority 2011, dated 2014)", "key": {"[1]": {"tested_on": "P19 embryonal carcinoma cells differentiated into neurons", "experiment": "Neurite outgrowth of neurons cultured in peptide amphiphile gels", "format": "cell-based, murine", "conditions": "compared to gels of PA 1; for promotion of neurite outgrowth (in words): gels containing 0.2 wt % of the PA with 0.8 wt % PA 1", "experimental": "P19 embryonal carcinoma cells were cultured in media composed of α-MEM (Gibco), 7.5% newborn calf serum (Lonza), 2.5% fetal bovine serum (Gibco), penicillin (100 units/ml) and streptomycin (100 ug/ml) (Invitrogen). Neuronal differentiation was induced by plating P19 cells in non-treated Petri dishes in media containing 5 uM retinoic acid (Sigma) for 4 days. Neurospheres were collected from the Petri dish and allowed to settle in a centrifuge tube for 10 minutes. Media was removed, then trypsin/EDTA solution was added and the tube was gently agitated for 5 minutes. Cells were dissociated by triturating the neurospheres, then media was added to inactivate the trypsin. Cells were centrifuged and the pellet resuspended in media to a concentration of 25,000 cells/ul. Cells were mixed (1:4) with PA solution. The PA/cell solution was pipetted into coverslip-bottom culture dishes (MatTek) and covered with gelling solution (150 mM NaCl, 3 mM KCl, 25 mM CaCl2) for 1 minute to induce gelation, then rinsed with a 150 mM NaCl, 3 mM KCl solution, then media was added to the dish. Cells were cultured for 2 days.\nIn order to assay neurite outgrowth, gels were rinsed with PBS, then fixed in 4% paraformaldehyde for 30 minutes at room temperature. Gels were rinsed 3× with PBS followed by addition of 10% normal goat serum blocking solution (Invitrogen) with 0.1% Triton X-100 added. Gels were incubated overnight with primary antibody (rabbit anti-β-III-tubulin IgG, 1/2000, Covance) in blocking solution. Gels were rinsed 3× with PBS, then blocked for 30 minutes with blocking solution. Next, gels were incubated with secondary antibody (Alexa Fluor 488 goat anti-rabbit IgG, 1/100, Invitrogen) in blocking solution for 1 hour. After one PBS rinse, nuclei were stained with a 5 ug/ml solution of Hoecsht 34580 (Invitrogen) in PBS for 15 minutes, then rinsed 4 times. Gels were imaged on a Zeiss LSM 510 META laser scanning confocal microscope, individually acquiring z-stacks of randomly chosen cells with neurites. Two gels were imaged per condition for each experiment. Experiments were done in triplicate. For each condition, at least 50 neurons with neurites were imaged. Using the Simple Neurite Tracer plug-in for ImageJ software, neurites were traced and measured. A one-way ANOVA, followed by paired t-tests, were performed to determine significance between conditions. Researchers were blinded to the conditions during imaging and tracing.\nPluripotent murine P19 embryonal carcinoma cells were differentiated into neurons. These neurons were then homogeneously distributed into isotonic salt solutions composed of 0.8 wt % PA 1 mixed with 0.2 wt % 2-5 and gelled with 25 mM CaCl2 (FIG. 3a,b). Mixtures of 1 with 2-5 were used in biological experiments in order to form robust gel matrices capable of supporting cells in culture. After two days of culture, the cells were fixed and the neurites and nuclei were fluorescently labelled green and blue using β-III-tubulin immunostaining and Hoechst staining, respectively, then imaged by confocal microscopy (FIG. 14). Neurites were traced and measured, and average neurite lengths were calculated (FIG. 15)."}, "[2]": {"experiment": "Small-angle X-ray scattering (SAXS) of PA nanostructures", "format": "physicochemical", "conditions": "for Total SAXS Cross-section dimensions: diameter", "description": "Small-angle X-ray scattering (SAXS) measurements were obtained using a Rigaku S-MAX 3000 High Brilliance SAXS System. Cu Ka radiation was generated by Osmic MicroMaxs, an integrated microfocus sealed tube generator (powered at 45 kV and 0.9 mA) with Osmict Confocal Max-Fluxs optics, 3 pinholes collimation. A 20×20 cm^2 2D position-sensitive wire detector (1024×1024 pixels) was positioned 150 cm behind the examined samples, resulting in a q-range of 0.07-2.8 nm^−1. The wave vector defined as, q=(4π/λ)sin(2θ/2), where 2y is the scattering angle and λ is wavelength of Cu Kα radiation (1.542 Å). A total of 10^6 or more counts were collected in order to obtain a high signal to noise ratio. Samples were measured for 3600 s, and then background subtracted from data collected using a capillary containing the isotonic salt solution. The 2D SAXS patterns were azimuthally averaged and the background subtracted using standard methods. Data analysis was based on fitting the scattering curve to an appropriate model by a least-squares method using software provided by NIST (NIST SANS analysis version 7.0 on IGOR) ^21 The table below lists the models used to fit the SAXS curves. The Total SAXS cross-sectional dimensions correspond to length and width for molecule 2, and diameter for 3-5."}, "[3]": {"experiment": "Transmission electron microscopy (cryoTEM / conventional TEM) of PA nanostructures", "format": "physicochemical", "experimental": "The nanostructure of each PA molecule under physiologically relevant conditions was investigated using electron microscopy. Samples for vitreous ice cryo-transmission electron microscopy (cryoTEM) were prepared from a 0.1-0.5 wt % PA solution dissolved in 150 mM NaCl, 3 mM KCl, or in a 150 mM NaCl, 3 mM KCl, and 5 mM CaCl2 solution, both at a pH of 7.2-7.4. The solutions were then heated to 80° C. in a water bath for 1 hr, and then slowly cooled to room temperature over the course of 8 hr. 10 μL of each solution was pipetted onto a plasma cleaned holey carbon TEM grid (Electron Microscopy Sciences), blotted and plunged into liquid ethane using a FEI Vitrobot Mark IV. Samples were kept at −180° C. and imaged using a JEOL 1230 TEM operating at 100 kV.\nSamples for conventional TEM microscopy were prepared from 0.1 wt % PA solution dissolved in ultrapure water and adjusted to a pH of 7.2-7.4 by adding NaOH. The solutions were then heated to 80° C. in a water bath for 1 hr, and then slowly cooled to room temperature over the course of 8 hr, unless noted otherwise. 2 μL of a 0.1 wt % PA solution was pipetted onto a Carbon Formvar grid (Electron Microscopy Sciences) and allowed to dry. The samples were then negatively stained by pipetting 2 uL of a 2 wt % Uranyl acetate solution and allowed to dry. Each sample was imaged using a JEOL 1230 TEM operating at 100 kV. The average diameter of nanofibers was obtained via measuring 40-100 different fibers from solutions and grids prepared throughout multiple days.\nThe assembly of each PA molecule under physiologically relevant conditions was examined using cryogenic electron microscopy (cryoTEM), as described in Example 4. PAs were dissolved in isotonic salt solutions resembling extracellular fluid (150 mM NaCl, 3 mM KCl, pH 7.4). […] In order to compare molecular simulation diameters with those observed from TEM, molecular simulation values for the other four PA molecules were scaled by the same amount, 87%."}, "[4]": {"experiment": "Solubility in physiologically relevant monovalent salt solution", "format": "physicochemical", "conditions": "monovalent salt solution composed of 150 mM NaCl and 3 mM KCl"}, "Dynamic light scattering": {"experiment": "Dynamic light scattering", "format": "physicochemical"}, "Circular dichroism (CD)": {"experiment": "Circular dichroism (CD)", "format": "physicochemical", "experimental": "CD was done using a model J-715 Jasco Circular Dichroism Spectrometer. 1 wt % PA solutions were prepared in either a 150 mM NaCl, 3 mM KCl solution or a 150 mM NaCl, 3 mM KCl, and 5 mM CaCl2 solution, both at a pH of 7.2-7.4, as determined via pH paper. The solutions were then heated to 80° C. in a water bath for 1 hr, and then slowly cooled to room temperature over the course of 8 hr. The samples were measured through 0.01 mm quartz plates. Each trace represents the average of three scans. The mean residue ellipticity was corrected for purity of the lyophilized powder from peptide content analysis."}, "[5]": {"tested_on": "P19 embryonal carcinoma cells differentiated into neurons", "experiment": "Neurite outgrowth of neurons cultured in peptide amphiphile gels", "format": "cell-based, murine", "conditions": "gels containing half the concentration (0.1 wt %) of the PA; compared to gels of PA 1"}, "[6]": {"experiment": "Transmission electron microscopy (cryoTEM / conventional TEM) of PA nanostructures", "format": "physicochemical", "conditions": "1 wt % solution drop-cast and dried onto a TEM grid"}, "[7]": {"conditions": "(Core) Shell Cylinder SAXS model"}}, "note": "Peptide text beside a SMILES is read from it. * marks the point of attachment. Palmitoyl = CCCCCCCCCCCCCCCC(=O)*", "data": [{"molecule": "CCCCCCCCCCCCCCCC(=O)N[C@H](C(=O)N[C@H](C(=O)N[C@@H](C)C(=O)N[C@@H](C)C(=O)N[C@@H](CCC(=O)O)C(=O)N[C@@H](CCC(=O)O)C(=O)N[C@@H](CCC(=O)O)C(=O)N[C@@H](CCC(=O)O)C(=O)NCC(=O)N[C@H](C(=O)N[C@@H](CCCCN)C(=O)N[C@H](C(=O)N[C@@H](C)C(=O)N[C@H](C(=O)O)C(C)C)C(C)C)[C@@H](C)CC)C(C)C)C(C)C", "note": "[PA 5, CH3(CH2)14C(O)-VVAAEEEEGIKVAV-OH] (Palmitoyl-VVAAEEEEGIKVAV-OH)", "values": [{"measurement": "promotion of neurite outgrowth (in words)", "setting": "[1]", "result": "promoted neurite outgrowth"}, {"measurement": "promotion of neurite outgrowth (in words)", "setting": "[1]; listed as SEQ ID NO. 7", "result": "promote neurite outgrowth"}, {"measurement": "increase in neurite outgrowth", "setting": "[1]; gels of 0.8 wt % PA 1 mixed with 0.2 wt % of the PA, gelled with 25 mM CaCl2, 2 days culture", "result": "88±13", "unit": "%"}, {"measurement": "Core Diameter", "setting": "[2]; [7]", "result": 1.2, "unit": "nm"}, {"measurement": "Shell Thickness", "setting": "[2]; [7]", "result": "2.0 ± 0.6", "unit": "nm"}, {"measurement": "Total SAXS Cross-section dimensions", "setting": "[2]; [7]", "result": "6.4 ± 1.8", "unit": "nm"}, {"measurement": "Core Diameter", "setting": "[2]; (Core) Shell Sphere SAXS model", "result": 1.46, "unit": "nm"}, {"measurement": "Shell Thickness", "setting": "[2]; (Core) Shell Sphere SAXS model", "result": "1.4 ± 0.6", "unit": "nm"}, {"measurement": "Total SAXS Cross-section dimensions", "setting": "[2]; (Core) Shell Sphere SAXS model", "result": "5.9±1.2", "unit": "nm"}, {"measurement": "Total SAXS Cross-section dimensions", "setting": "[2]; (Core) Shell Sphere SAXS model, listed as 5", "result": "5.9±1.2", "unit": "nm"}, {"measurement": "diameter of cylindrical structures", "setting": "[3]; cryoTEM, isotonic salt solution with 5 mM CaCl2 added", "result": "9.9±1.1", "unit": "nm"}, {"measurement": "diameter of spherical micelles", "setting": "[3]; cryoTEM, without CaCl2", "result": "5.3±1.1", "unit": "nm"}, {"measurement": "OBSERVED FIBER DIAMETER", "setting": "[3]; from TEM", "result": "108 ± 15", "unit": "Å"}, {"measurement": "ASSEMBLED MORPHOLOGY", "setting": "[3]; observed morphologies from TEM", "result": "Cylindrical fiber"}, {"measurement": "solubility", "setting": "[4]", "result": "soluble"}, {"measurement": "hydrodynamic radius of spherical micelles", "setting": "Dynamic light scattering", "result": 8.6, "unit": "nm"}, {"measurement": "peptide secondary structure from CD spectrum", "setting": "Circular dichroism (CD); 150 mM NaCl, 3 mM KCl with 5 mM CaCl2 added", "result": "presence of β-sheet structure"}, {"measurement": "peptide secondary structure from CD spectrum", "setting": "Circular dichroism (CD); 1 wt % in 150 mM NaCl, 3 mM KCl", "result": "random coil peptide structure"}, {"measurement": "increase in neurite length", "setting": "[5]", "result": "57±14", "unit": "%"}, {"measurement": "average diameter of cylindrical nanofibers", "setting": "[6]", "result": "10.8±1.5", "unit": "nm"}]}]}
